Assay results as given in article PMC2759517 (PLoS ONE, 2009).
pIC50: −log10 of the molar value. Where no end group is shown, it is not given here.

target: T1, HA-tagged PA of FluB (Influenza B virus, UniProt Q9QLI9); experiment: biochemical; assay type: binding
T1 construct: upstream of the initiation codon and antisense primers with a deleted stop codon; made in house; host or cells: human 293T cells, transiently transfected; unpurified cell lysate
T1 sequence (Q9QLI9 whole entry): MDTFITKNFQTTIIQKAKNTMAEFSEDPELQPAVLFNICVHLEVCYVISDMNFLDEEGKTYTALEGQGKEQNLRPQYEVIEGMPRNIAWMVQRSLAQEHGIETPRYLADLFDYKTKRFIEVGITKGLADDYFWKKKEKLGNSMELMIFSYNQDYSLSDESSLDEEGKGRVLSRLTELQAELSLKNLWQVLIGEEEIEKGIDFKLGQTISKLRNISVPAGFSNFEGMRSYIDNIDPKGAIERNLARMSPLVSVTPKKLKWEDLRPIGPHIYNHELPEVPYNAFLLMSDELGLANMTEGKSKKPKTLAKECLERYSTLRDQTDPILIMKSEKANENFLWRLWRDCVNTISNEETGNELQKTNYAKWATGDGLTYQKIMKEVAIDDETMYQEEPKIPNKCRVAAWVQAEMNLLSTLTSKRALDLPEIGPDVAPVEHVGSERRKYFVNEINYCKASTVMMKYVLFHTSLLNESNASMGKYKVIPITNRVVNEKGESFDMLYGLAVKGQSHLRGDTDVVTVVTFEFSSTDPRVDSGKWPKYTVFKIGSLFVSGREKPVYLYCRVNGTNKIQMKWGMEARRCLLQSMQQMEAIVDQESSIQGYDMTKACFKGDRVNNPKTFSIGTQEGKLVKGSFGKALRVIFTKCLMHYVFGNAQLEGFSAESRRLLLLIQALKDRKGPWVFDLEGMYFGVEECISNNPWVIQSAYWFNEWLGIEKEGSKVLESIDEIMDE

Point of comparison: MDVNPFLLFLKVPAQ-NH2 [PB11-15 AT6F], pIC50 6.12. Against it:
- CC[C@H](C)[C@H](NC(=O)[C@H](CC(N)=O)NC(=O)[C@@H](N)CCSC)C(=O)N[C@@H](CC(N)=O)C(=O)N1CCC[C@H]1C(=O)N[C@H](C(=O)N[C@@H](CC(C)C)C(=O)N[C@@H](CC(C)C)C(=O)N[C@@H](Cc1ccccc1)C(=O)N[C@@H](CC(C)C)C(=O)N[C@@H](CCCCN)C(=O)N[C@H](C(=O)N1CCC[C@H]1C(=O)N[C@@H](C)C(=O)N[C@@H](CCC(N)=O)C(N)=O)C(C)C)[C@@H](C)O [PB11-15 AD2N,V3I] — lower, < 5.52
- MDVNPCLLFLKVPAQ-NH2 [PB11-15 AT6C] — lower, < 5.52
- MDVNPHLLFLKVPAQ-NH2 [PB11-15 AT6H] — lower, < 5.52
- MDVNPTFLFLKVPAQ-NH2 [PB11-15 AL7F] — lower, < 5.52
- MDVNPTLLFIDVPAQ-NH2 [PB11-15 AL10I,K11D] — lower, < 5.52
- MDVNPWLLFLKVPAQ-NH2 [PB11-15 AT6W] — within 0.2 log units, 6.20
- MDVNPYFLFLKVPAQ-NH2 [PB11-15 AT6Y,L7F] — 0.34 log units higher, 6.46
- MDVNPYLLFLKVPAQ-NH2 [PB11-15 AT6Y] — 0.85 log units higher, 6.97
- MNINPTLLFLKVPIQ-NH2 [PB11-15 AD2N,V3I,L14I] — lower, < 5.52
